In PubChem BioAssay (NCI):
Where “and” joins values, the source holds several entries; their conditions need not be identical. Equal entries are not always repeated.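 Exposure lasted 48 hours, with cells grown in 96-well plates and compounds tested at five concentrations. GI50 is the concentration that inhibits growth by half. At the TGI there is no net growth.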

Test system: MDA-MB-468 breast
Test: NCI tumour cell line growth inhibition, 48 h

**Q.** How did the GI50 turn out when `C=C(C)[C@@H]1CC[C@]2(C(=O)N3CCN(C)CC3)CC[C@]3(C)[C@H](CC[C@@H]4[C@@]5(C)C/C(=C/c6ccncc6)[C@H](O)C(C)(C)[C@@H]5CC[C@]43C)[C@@H]12` was run?
**A.** 5.45 µM

**Q.** What about the TGI of the same compound?
**A.** 26.1 µM

**Q.** `C/C(=N\NC(=O)c1cccc(S(=O)(=O)N2CCN(C)CC2)c1)c1cc(Cl)ccc1O` was tested. Which GI50 did it give?
**A.** 0.402 µM

**Q.** And the TGI?
**A.** 3.87 µM

**Q.** With `Cc1ccc(C(=O)Nc2ccc(CN3CCN(C)CC3)c(C(F)(F)F)c2)cc1C#Cc1cnc(N)c2ccc(C#N)cc12` as the compound, how does the GI50 read?
**A.** 0.156 µM

**Q.** What about the TGI of the same compound?
**A.** 9.63 µM

**Q.** What does the source list for `Cc1cc(NCCCNc2ccnc3cc(Cl)ccc23)nc(Nc2ccc(C(=O)N3CCCCC3)cc2)n1`?
**A.** GI50: 2.33 µM; TGI: 4.69 µM

**Q.** `Nc1c(C(=O)c2cccc(C(O)(CO)CO)c2)cnn1-c1ccc(F)cc1` was tested. Which GI50 did it give?
**A.** > 25 µM

**Q.** And the TGI?
**A.** > 25 µM

**Q.** Which results are given for `O=C1C2=C(C(=O)c3c(O)ccc(O)c31)N(c1cccnc1)Cc1ccccc1O2`?
**A.** GI50: 0.175 µM; TGI: 0.458 µM

**Q.** How did the GI50 turn out when `O=c1[nH]ccc2nc(N3CCC(O)CC3)nc(Nc3ccc(N4CCOCC4)cc3)c12` was run?
**A.** 43.2 µM

**Q.** And the TGI?
**A.** > 100 µM

**Q.** Which GI50 does the source give for `CS(=O)(=O)c1nccc(-c2c(-c3cccc(OCc4ccccc4)c3)nc3sccn23)n1` here?
**A.** 1.41 µM

**Q.** What about the TGI of the same compound?
**A.** 3 µM

**Q.** Which GI50 does the source give for `COc1ccc(-c2c(-c3cc4c(c(OC)c3OC)OCO4)noc2N)cc1` here?
**A.** 0.192 µM

**Q.** How did the GI50 turn out when `CCCCCCCC(=O)SCC/C=C/[C@@H]1CC(=O)NCc2cccc(n2)C2=N[C@@](C)(CS2)C(=O)N[C@@H](C(C)C)C(=O)O1` was run?
**A.** 0.107 µM

**Q.** And the TGI?
**A.** > 33.3 µM

**Q.** `O=C(NCCN1CCOCC1)Nc1nc2ccc(Sc3nnc4ccc(-c5ccc(F)cc5)nn34)cc2s1` was tested. Which TGI did it give?
**A.** > 29.3 µM

**Q.** Which results are given for `COc1ccc2c(c1)O/C(=C\c1ccc([N+](=O)[O-])o1)C2=O`?
**A.** GI50: 0.519 µM; TGI: 2.26 µM

**Q.** `Oc1ccccc1/C=N/Nc1nc2ccccc2s1` was tested. Which GI50 did it give?
**A.** 2.51 µM

**Q.** And the TGI?
**A.** 60.7 µM

**Q.** How did the GI50 turn out when `CC[C@]12C=CCN3CC[C@@]4(c5ccc(OC)cc5N(C)[C@H]4[C@@](O)(C(=O)OC)[C@@H]1OC(=O)CCCC[P+](c1ccccc1)(c1ccccc1)c1ccccc1)[C@@H]32` was run?
**A.** 0.195 µM

**Q.** And the TGI?
**A.** 0.575 µM

**Q.** How did the GI50 turn out when `CC/C=C\C[C@H](O)C/C=C1/C(=O)C=C[C@@H]1C/C=C\CCCC(=O)OCCS(=O)(=O)c1ccccc1` was run?
**A.** 2.28 µM

**Q.** And the TGI?
**A.** 6.83 µM

**Q.** Which GI50 does the source give for `COc1cc(-c2nn(-c3ccc(NC(=O)Nc4ccc(Cl)c(C(F)(F)F)c4)cc3)cc2-c2ccncc2)ccc1Cl` here?
**A.** 1.39 µM

**Q.** What about the TGI of the same compound?
**A.** 3.23 µM

**Q.** What does the source list for `CCN(CC)c1ccc(CNc2cc(C)nc3ccc(OC)cc23)cc1`?
**A.** GI50: 1.02 µM; TGI: 2.63 µM

**Q.** Which GI50 does the source give for `CN(C)c1ccc(/C=N/NC(=O)CSc2nc3sc4c(c3c(=O)n2-c2ccccc2)CCCCC4)cc1` here?
**A.** 3.85 µM

**Q.** And the TGI?
**A.** > 100 µM

**Q.** For `OC1CCN(CCCOc2c3ccccc3nc3c2oc2ccccc23)CC1`, which GI50 is on record?
**A.** 1.76 µM

**Q.** What about the TGI of the same compound?
**A.** 4.91 µM

**Q.** `Cc1ccccc1NC(=O)N/C(N)=N/c1nc(C)c(C)s1` was tested. Which GI50 did it give?
**A.** 0.224 µM

**Q.** And the TGI?
**A.** 0.788 µM

**Q.** What does the source list for `CC(C)C[C@H](NC(=O)[C@H](Cc1ccccc1)NC(=O)c1cnccn1)B(O)O`?
**A.** GI50: < 0.01 µM and 0.0019 µM; TGI: < 0.01 µM and 0.0052 µM

**Q.** How did the GI50 turn out when `O=C(Nc1ccc(-n2ccc3c(NC(=O)c4ccccc4)ncnc32)cc1)Nc1ccc(Cl)c(C(F)(F)F)c1` was run?
**A.** 1.44 µM

**Q.** What about the TGI of the same compound?
**A.** 3.32 µM

**Q.** With `N#Cc1c(N)n(C2OC(CO)C(O)C2O)c2ncnc(N)c12` (stereo unspecified) as the compound, how does the GI50 read?
**A.** 0.0173 µM

**Q.** What about the TGI of the same compound?
**A.** 0.0349 µM

**Q.** How did the GI50 turn out when `COc1ccc(/C=C(/C(=O)N2CCN(c3ccc(C)cc3)CC2)c2cc(OC)c(OC)c(OC)c2)cc1N` was run?
**A.** 0.224 µM

**Q.** `O=C(/C=C/c1ccccc1)Nc1ncc(Cc2ccccc2)s1` was tested. Which GI50 did it give?
**A.** 0.416 µM

**Q.** What about the TGI of the same compound?
**A.** > 100 µM

**Q.** Which results are given for `Cc1c(C)n(CC(O)CNC2CCCCC2C)c2ccccc12` (stereo unspecified)?
**A.** GI50: 9.21 µM; TGI: 23 µM

**Q.** What does the source list for `c1cc2c(cc1NC1=NCCO1)CCCC2`?
**A.** GI50: 6.18 µM; TGI: 24.8 µM

**Q.** Which GI50 does the source give for `COc1ccc2nc(-c3ccc(Cl)cc3)cc(-c3nnc(SCC(=O)Nc4ccc(/C(C)=N\O)cc4)o3)c2c1` here?
**A.** 1.38 µM

**Q.** What about the TGI of the same compound?
**A.** 3.58 µM

**Q.** What does the source list for `COc1cc(/C=C/C(=O)c2ccc(F)cc2)ccc1OCCCCOc1cc2c(cc1OC)C(=O)N1CCCC1C=N2` (stereo unspecified)?
**A.** GI50: 1.71 µM; TGI: 3.59 µM

**Q.** `O=c1ncc(I)c[nH]1` was tested. Which GI50 did it give?
**A.** > 100 µM

**Q.** What about the TGI of the same compound?
**A.** > 100 µM

**Q.** What does the source list for `COc1ccc(NC(=O)COc2ccccc2)c(C(N)=O)c1`?
**A.** GI50: 0.453 µM; TGI: > 62.8 µM

**Q.** Which GI50 does the source give for `OCCNC(=S)Nc1ccc(-c2nc(N3C[C@H]4CC[C@@H](C3)O4)c3cccn3n2)cc1` here?
**A.** 0.0174 µM

**Q.** And the TGI?
**A.** 0.289 µM

**Q.** `COc1ccccc1CN=C1NC(=O)/C(=C/c2ccc3ncccc3c2)S1` was tested. Which GI50 did it give?
**A.** 3.35 µM

**Q.** What about the TGI of the same compound?
**A.** > 25 µM

**Q.** For `COc1ccc(Nc2[nH]n(C3=Nc4ccccc4Sc4ccccc43)c(=O)c2C#N)cc1`, which GI50 is on record?
**A.** 0.382 µM

**Q.** What about the TGI of the same compound?
**A.** 2.81 µM

**Q.** With `COc1ccc(C2CC(c3ccc4ccccc4c3)=NN2/C=C2\SC(=S)N(NC(=O)Cc3ccccc3Nc3c(Cl)cccc3Cl)C2=O)cc1` (stereo unspecified) as the compound, how does the GI50 read?
**A.** 0.544 µM

**Q.** What about the TGI of the same compound?
**A.** > 34.2 µM

**Q.** Which GI50 does the source give for `COc1ccc(C(=O)OC2C(OC3C(O)COC(O[C@H]4C[C@H]5[C@@H]6CC=C7C[C@@H](O)CC[C@]7(C)[C@H]6CC[C@]5(C)[C@H]4[C@H](C)C(=O)CCC(C)C)C3OC(=O)C(C)C)OCC(O)C2O)cc1` (stereo partly specified) here?
**A.** 0.0583 µM

**Q.** And the TGI?
**A.** 3.55 µM

**Q.** What does the source list for `COc1ccc2[nH]cc(/C=N/Nc3ccnc4cc(Cl)ccc34)c2c1`?
**A.** GI50: 1.13 µM; TGI: 2.6 µM
